Each structure is given as a SMILES string. pKi: −log10 of the molar value.

Data set [1] has as its system primary antibody production in response to SRBC. Put plainly: Quantitative hemolysis of sheep red blood cells (QHS) assay. The following applies: 7-day intraperitoneal injection. Type of data set: in vivo, Balb/c mice. As to the method: Female Babl/c mice were immunized by intraperitoneal injection with 0.2 ml of 16.7% of SRBC on day 4. Vehicle, Dexamethasone and DZ2002 were administrated on each group (n=6) by intraperitoneal injection on 7 consecutive days of 1-7. On day 8, mice were sacrificed and made a mixed suspension of spleen cells of 2×10^6 cells/ml. 1 ml of cell suspension was incubated with 1 ml of 0.5% SRBC and 1 ml of 1:10 dilution of guinea pig complement for 1 h at 37° C., then centrifuged (3 min, 3000 g) and determined the supernatant hemolysis at 413 nm, according to Simpson et al., J. Immunol. Methods., 21(1-2):159-65. (1978) with some modifications. Each group was triplicated.

Data set [2] has as its target intracellular AdoHcy hydrolase (Rattus norvegicus, UniProt P10760). As to conditions: intracellular enzyme; cited from earlier work.
The target of another data set is SAH hydrolase (Rattus norvegicus, UniProt P10760). As to conditions: cited from earlier work.
Data set [3] has as its system lupus-prone MRL-Fas^lpr mice. Briefly: survival of lupus-prone MRL-Fas lpr mice. Type of data set: in vivo, mouse. As to conditions: 50 mg/kg/day i.p. As for the experimental part: MRL-Fas^lpr female mice were provided by The Jackson Laboratory (Bar Harbor, Me.). The mice were housed in specific pathogen-free (SPF) conditions with room temperature of 24±2° C., 12 hr light/dark cycle, and provided with sterile food and water ad libitum. Starting at approximately 6 weeks of age, MRL-Fas^lpr mice (n=11-13/group) were dosed i.p. every day with either DZ2002 (50 mg/kg/day) or with vehicle (0.4% DMSO/PBS) for ˜9 months and followed for survival. Mouse survival data were analyzed by the Kaplan-Meir method with comparison by the log-rank test; p<0.05 was considered to be significant.

Data set [4] has as its system C57BL/6 spleen cells stimulated by mitomycin-treated Balb/c spleen cells. Briefly: Mixed lymphocyte reaction (MLR) proliferation assay. As to conditions: 3-day culture. Type of data set: cell-based, mouse. As to the method:
Balb/c mouse spleen cells were prepared in 10^7 cells/ml suspension, cultured 2 h with 50 μg/ml of mitomycin. Then cells were washed and cultured together with fresh C57/B6 mice splenocytes equally in a final concentration of 1.0×10^6 cells/ml in the presence or absence of various concentrations of DZ2002. After 48 hour incubation, cells were pulsed with 0.5 μCi/well of [^3H]-thymidine and cultured for another 24 hours. The cells were then harvested onto glass fiber filters and the incorporated radioactivity was counted using a Beta Scintillator (MicroBeta Trilux, PerkinElmer Life Sciences).

In data set [5] the test system is TG induced peritoneal macrophages. Put plainly: cytokine production from TG induced peritoneal macrophages (ELISA). The following applies: IFN-γ and LPS 24 h, 0.1-10 μmol/L. Type of data set: cell-based, BALB/C mice. As for the experimental part:
Peritoneal exudate cells were induced in BALB/C mice by an intraperitoneal injection of 0.5 ml of 3% TG. After 4 days, the peritoneal exudates cells were harvested by sterile lavage.
Murine peritoneal exudate cells (6.25×10^5) were cultured in 24-well plates in a volume of 1 ml/well for 2 hours. In adherent cells were washed by ice cold RPMI 1640 and adherent cells were culture in a volume of 2 ml/well in the presence of IFN-γ (2.5 ng/ml) and LPS (1 μg/ml) in the presence or absence of various concentrations of DZ2002. After 24 h, cell-free supernatant was collected and frozen at −20° C. The concentrations of IL-12p40, IL-12p70, IL-10 and TNF-α were determined by ELISA.
Cytokines produced by peritoneal macrophages were assessed following a 24-h incubation with IFN-γ at 25 U/ml and LPS at 1 μg/ml. Resident peritoneal cells produce low levers of cytokines except for some IL-10 with incubated with IFN-γ and LPS (data not shown). As for TG induced peritoneal macrophages, DZ2002 inhibited IL-12P40 and TNF-α release, but have no effect on IL-10 production in the dose of 0.1-10 μmol/L (FIG. 5).

The test system of data set [6] is Mouse splenic lymphocytes. Briefly: MTT cytotoxicity assay of the splenic lymphocytes. The format is cell-based. As to conditions: 0.1-10 μmol/L, two days of culture. As for the experimental part: Cytotoxicity was assessed with MTT assay. Mouse splenic lymphocytes were incubated in a 96-well plate at 9×10^4 cells/180 μl/well in a humidified CO2 incubator at 37° C. for 48 hours in the presence or absence of various concentrations of DZ2002. Fifteen (15) μl of 5 mg/ml of MTT was pulsed 4 h prior to end of the culture […], and then 80 μl solvent (10% SDS, 50% N,N-dimethy formamide, PH7.2) was added. Incubate for 7 h and read OD590 at a microplate reader (Bio-rad Model 550 Japan).
Background: Formazan colour is commonly taken as a measure of viable cells.

Sequence of SAH hydrolase (P10760 whole entry): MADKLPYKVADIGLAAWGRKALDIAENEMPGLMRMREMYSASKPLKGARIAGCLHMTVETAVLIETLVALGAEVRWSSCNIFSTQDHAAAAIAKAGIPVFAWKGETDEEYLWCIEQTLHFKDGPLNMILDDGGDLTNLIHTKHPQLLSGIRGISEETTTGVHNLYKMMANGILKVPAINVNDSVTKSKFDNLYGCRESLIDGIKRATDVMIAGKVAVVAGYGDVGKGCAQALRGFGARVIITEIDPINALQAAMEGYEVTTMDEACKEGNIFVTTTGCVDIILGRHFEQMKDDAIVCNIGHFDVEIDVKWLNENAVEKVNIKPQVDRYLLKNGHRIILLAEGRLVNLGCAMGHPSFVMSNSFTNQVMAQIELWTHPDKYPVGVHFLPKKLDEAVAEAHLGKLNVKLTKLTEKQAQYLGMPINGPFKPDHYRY
Sequence of intracellular AdoHcy hydrolase (P10760 whole entry): as above

As to `C[C@@H]1C[C@H]2[C@@H]3CCC4=CC(=O)C=C[C@]4(C)[C@@]3(F)[C@@H](O)C[C@]2(C)[C@@]1(O)C(=O)CO` [Dethamethasone, reference compound], the “inhibition of QHS” value in data set [1] (5 mg/kg) was found to be 38.1%.
`Nc1ncnc2c1ncn2C[C@H](O)CO` [(S)-DHPA, (S)-9-(2,3-dihydroxypropyl)adenine]: the “type of inhibition of intracellular AdoHcy hydrolase” value in data set [2] was “irreversible inhibitor”. Further, on SAH hydrolase (isolated enzyme), the “type of inhibition of isolated AdoHcy hydrolase” value was “reversible inhibitor”. The pKi on SAH hydrolase (read-out: Ki value against SAH hydrolase) was 5.46.
In the case of `COC(=O)C(O)CCn1cnc2c(N)ncnc21` (stereo not drawn) [DZ2002, Methyl 4-(Adenin-9-yl)-2-hydroxybutanoate], the “age at which extension in survival was first observed” value in data set [3] is “approximately 160 days of age”. The “inhibition of QHS” value in data set [1] (0.08 mg/kg) came to 24.5%; in data set [1] (2 mg/kg), 18.4%. Also, the “suppression of MLR” value is 40.2% in data set [4] (0.1 μmol/L), 36.9% in data set [4] (1 μmol/L) and 42.3% in data set [4] (10 μmol/L). Besides, the IL-10 production entry in data set [5] is “no effect”. For the same compound, the “cytotoxicity to spleen cells (MTT, OD)” value in data set [6] is on record as “no cytotoxicity”.

As a reminder, the pKi is −log10 of the Ki, conventionally taken in molar units.

The values are drawn from patent publication US7868011B2 (General Atomics, priority 2003, dated 2011).
